Assay results from patent US20250108038A1 (priority 2023, published 2025).
Values joined by “and” are separate entries in the source; they are usually repeats but may differ in a detail not shown here. Equal entries are not always repeated. Where two headings read alike, the source gives them in different places.

Columns and labels:
in vitro = details: beagle, dog, plasma
Procedure: (§1) Pooled (N≥3) male SD rat, beagle dog and mixed gender human plasma with EDTA-K2 as anticoagulant were purchased from BioIVT (NY, USA) and stored in a −70° C. freezer before use.
(§2) Incubations were conducted in 96-well plate format. The time points defined for this study are 0, 5, 15, 30 and 60 minutes.
(§3) For positive controls, the rat plasma was spiked with enalapril, the dog plasma spiked with bisacodyl and the human plasma was spiked with propantheline. All spiked plasma sample plates were incubated in a water bath at 37° C. with shaking.
(§4) At end of each time point, samples were immediately quenched with three volume of cold quenching solution. All sample plates were mixed thoroughly by shaking for approximately 10 minutes and centrifuged at 3220×g for 15 minutes. Subsequently, 100 μL of supernatant was removed from each well, mixed with 100 μL water in a new 96-well plate and subjected to LC-MS/MS analysis.
(§5) Concentrations of test article, metabolite, and control compounds in the samples were analyzed by LC-MS/MS semi-quantitatively. […] The peak area ratios of analyte/internal standard were used to semi-quantitatively determine the concentrations.
(§6) The peak area ratios (PAR) of analyte/internal standard were used to semi-quantitatively determine the concentration of test article and control compounds, and calculate the percent remaining with the following equation:
(§7) The elimination rate (ke) was calculated from a log linear plot of % remaining versus time. The half-life was calculated using the following equation:

[1] = Stability in beagle dog plasma; details: 2.0 μM
Procedure: as §1, §2, §3, §4, §5, §6, §7

CYP2C19 [2] = target: T1, CYP2C19 (Homo sapiens, UniProt P33261); test: biochemical
T1 sequence (P33261 whole entry): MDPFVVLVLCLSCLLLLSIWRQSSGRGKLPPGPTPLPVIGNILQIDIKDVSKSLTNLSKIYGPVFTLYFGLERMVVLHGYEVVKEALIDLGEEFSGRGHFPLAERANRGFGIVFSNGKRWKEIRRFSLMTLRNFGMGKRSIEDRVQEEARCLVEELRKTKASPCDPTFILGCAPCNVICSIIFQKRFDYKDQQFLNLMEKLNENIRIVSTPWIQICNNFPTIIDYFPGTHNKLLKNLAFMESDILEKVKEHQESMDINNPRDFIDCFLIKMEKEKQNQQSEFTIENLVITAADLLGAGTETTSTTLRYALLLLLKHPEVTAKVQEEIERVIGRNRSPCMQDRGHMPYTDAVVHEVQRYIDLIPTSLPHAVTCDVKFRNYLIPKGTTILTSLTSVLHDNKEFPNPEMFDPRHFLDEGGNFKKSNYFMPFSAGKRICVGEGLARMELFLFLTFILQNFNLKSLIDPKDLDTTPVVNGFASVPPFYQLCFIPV

CYP2C19 [3] = target: T1, CYP2C19; test: in vitro; details: both, pH 7.4
CYP1A2 = target: T2, CYP1A2 (Homo sapiens, UniProt P05177); test: in vitro; details: both, microsomes, pH 7.4
T2 sequence (P05177 1-516): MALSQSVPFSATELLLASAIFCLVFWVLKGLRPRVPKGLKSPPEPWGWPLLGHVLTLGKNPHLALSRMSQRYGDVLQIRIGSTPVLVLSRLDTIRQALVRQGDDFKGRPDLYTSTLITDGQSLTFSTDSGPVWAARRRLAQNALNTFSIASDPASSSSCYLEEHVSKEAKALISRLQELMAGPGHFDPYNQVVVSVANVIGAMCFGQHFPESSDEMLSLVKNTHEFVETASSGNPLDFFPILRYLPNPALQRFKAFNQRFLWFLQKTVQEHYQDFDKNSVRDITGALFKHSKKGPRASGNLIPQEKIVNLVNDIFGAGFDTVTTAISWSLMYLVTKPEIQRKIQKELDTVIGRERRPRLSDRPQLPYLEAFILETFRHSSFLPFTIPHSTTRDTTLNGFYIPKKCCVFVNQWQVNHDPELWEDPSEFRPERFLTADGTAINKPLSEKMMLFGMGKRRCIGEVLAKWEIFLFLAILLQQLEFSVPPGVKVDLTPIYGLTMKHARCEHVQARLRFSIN

CYP2C8 = target: T3, CYP2C8 (Homo sapiens, UniProt P10632); test: in vitro; details: both, pH 7.4
T3 sequence (P10632 1-490): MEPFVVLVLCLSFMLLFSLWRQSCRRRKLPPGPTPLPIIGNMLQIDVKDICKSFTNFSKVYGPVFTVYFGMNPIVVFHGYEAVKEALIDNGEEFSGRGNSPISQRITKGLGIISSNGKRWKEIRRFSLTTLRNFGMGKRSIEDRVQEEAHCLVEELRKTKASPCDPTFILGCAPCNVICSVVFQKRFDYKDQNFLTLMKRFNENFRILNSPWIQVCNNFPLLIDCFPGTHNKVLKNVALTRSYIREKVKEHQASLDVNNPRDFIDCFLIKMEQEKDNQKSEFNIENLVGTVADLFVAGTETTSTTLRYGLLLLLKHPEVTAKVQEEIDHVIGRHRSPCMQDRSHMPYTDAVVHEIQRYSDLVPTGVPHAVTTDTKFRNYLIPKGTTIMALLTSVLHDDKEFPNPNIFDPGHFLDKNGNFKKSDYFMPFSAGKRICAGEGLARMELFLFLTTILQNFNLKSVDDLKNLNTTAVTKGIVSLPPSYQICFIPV

CYP2C9 = CYP2C9 (Homo sapiens, UniProt P11712); test: in vitro; details: both, pH 7.4
Chain of CYP2C9 (P11712 whole entry): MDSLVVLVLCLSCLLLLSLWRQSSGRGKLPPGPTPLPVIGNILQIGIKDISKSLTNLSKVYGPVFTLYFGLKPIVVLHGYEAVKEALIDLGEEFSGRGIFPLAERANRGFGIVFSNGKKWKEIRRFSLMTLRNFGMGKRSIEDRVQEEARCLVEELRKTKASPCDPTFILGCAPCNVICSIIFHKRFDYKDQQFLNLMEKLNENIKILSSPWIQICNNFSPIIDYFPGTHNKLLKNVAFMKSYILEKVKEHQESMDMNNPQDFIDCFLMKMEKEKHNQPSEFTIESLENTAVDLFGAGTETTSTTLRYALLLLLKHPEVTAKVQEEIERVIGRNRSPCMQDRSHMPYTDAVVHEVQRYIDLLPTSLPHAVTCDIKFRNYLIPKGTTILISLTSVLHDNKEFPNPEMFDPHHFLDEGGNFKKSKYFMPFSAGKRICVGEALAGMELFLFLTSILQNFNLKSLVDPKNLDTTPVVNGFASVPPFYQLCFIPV

CYP2D6 = CYP2D6 (Homo sapiens, UniProt P10635); test: in vitro; details: both, pH 7.4
Chain of CYP2D6 (P10635 whole entry): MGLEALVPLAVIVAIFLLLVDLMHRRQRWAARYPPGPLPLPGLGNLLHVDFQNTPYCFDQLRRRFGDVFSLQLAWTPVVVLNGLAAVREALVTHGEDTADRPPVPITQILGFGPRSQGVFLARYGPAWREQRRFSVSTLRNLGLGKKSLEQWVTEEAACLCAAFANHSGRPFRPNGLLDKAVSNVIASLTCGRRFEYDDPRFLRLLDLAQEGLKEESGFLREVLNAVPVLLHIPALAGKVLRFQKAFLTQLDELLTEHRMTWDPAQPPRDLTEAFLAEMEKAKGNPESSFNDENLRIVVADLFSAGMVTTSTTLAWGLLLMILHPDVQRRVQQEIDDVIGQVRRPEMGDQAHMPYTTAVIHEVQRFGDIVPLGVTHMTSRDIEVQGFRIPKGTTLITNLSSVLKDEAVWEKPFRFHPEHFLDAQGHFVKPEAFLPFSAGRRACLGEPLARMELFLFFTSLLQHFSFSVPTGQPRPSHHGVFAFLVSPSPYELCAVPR

MATE2-K [4] = target: T4, MATE2-K (Homo sapiens, UniProt Q86VL8); test: in vitro
T4 sequence (Q86VL8 1-566 isoform Q86VL8-3): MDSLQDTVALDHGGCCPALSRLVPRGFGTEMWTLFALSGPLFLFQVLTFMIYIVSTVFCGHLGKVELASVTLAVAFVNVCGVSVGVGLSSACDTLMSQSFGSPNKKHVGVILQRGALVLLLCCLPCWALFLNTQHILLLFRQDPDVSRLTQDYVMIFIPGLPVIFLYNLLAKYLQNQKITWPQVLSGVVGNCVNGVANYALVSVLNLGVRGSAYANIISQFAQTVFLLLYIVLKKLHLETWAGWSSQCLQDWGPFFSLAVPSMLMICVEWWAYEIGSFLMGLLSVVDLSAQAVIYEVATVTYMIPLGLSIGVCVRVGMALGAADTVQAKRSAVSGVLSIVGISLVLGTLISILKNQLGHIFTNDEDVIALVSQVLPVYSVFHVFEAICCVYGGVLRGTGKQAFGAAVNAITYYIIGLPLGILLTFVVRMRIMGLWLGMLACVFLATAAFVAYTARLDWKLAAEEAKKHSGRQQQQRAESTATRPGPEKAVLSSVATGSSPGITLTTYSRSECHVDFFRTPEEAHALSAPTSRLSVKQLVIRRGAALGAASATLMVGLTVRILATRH
Procedure: (§8) Uptake experiments were performed using HEK293 cells stably expressing the respective uptake transporters.
(§9) Cells were cultured at 37° C. in a humidified atmosphere containing 5% CO2 and were plated onto standard 96-well tissue culture plates.
(§10) Before the experiment, the medium was removed, and the cells were washed twice with 100 μL of pre-warmed (37° C.) assay buffer listed in Table 15. The cells were pre-incubated at 37° C. for 30 minutes in assay buffer containing the test article at appropriate concentrations (Table 16), appropriate solvents for solvent controls and the reference inhibitor for reference inhibitor wells. After the pre-incubation step solutions were removed. Uptake experiments were performed at 37° C. in 50 μL of assay buffer containing the probe substrate and the test article or solvent and controls.
(§11) After the experiment, cells were washed twice with 100 μL of appropriate cold buffer and lysed with 150 μL scintillation cocktail. Radiolabeled probe substrate transport was determined by liquid scintillation counting.
(§12) Uptake of the probe substrate in control cells provided background activity values for all data points.

MATE2-K [5] = target: T4, MATE2-K
Procedure: as §8, §9, §10, §11, §12

MATE1 [6] = target: T5, MATE1 (Homo sapiens, UniProt Q96FL8); test: in vitro
T5 sequence (Q96FL8 1-570): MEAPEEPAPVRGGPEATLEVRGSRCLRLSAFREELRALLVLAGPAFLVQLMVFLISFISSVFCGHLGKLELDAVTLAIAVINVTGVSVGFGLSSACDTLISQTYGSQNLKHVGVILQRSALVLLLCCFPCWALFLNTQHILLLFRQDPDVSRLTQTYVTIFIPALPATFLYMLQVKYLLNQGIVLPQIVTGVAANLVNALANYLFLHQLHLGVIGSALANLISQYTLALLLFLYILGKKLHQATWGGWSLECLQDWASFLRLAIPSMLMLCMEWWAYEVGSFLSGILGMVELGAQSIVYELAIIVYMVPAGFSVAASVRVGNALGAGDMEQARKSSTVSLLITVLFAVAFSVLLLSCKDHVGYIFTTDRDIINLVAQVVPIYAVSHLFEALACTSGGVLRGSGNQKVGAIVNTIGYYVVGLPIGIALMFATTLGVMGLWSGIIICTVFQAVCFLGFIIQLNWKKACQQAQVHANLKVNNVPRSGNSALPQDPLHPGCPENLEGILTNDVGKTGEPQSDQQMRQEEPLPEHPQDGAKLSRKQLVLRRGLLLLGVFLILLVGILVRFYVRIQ
Procedure: as §8, §9, §10, §11, §12

MATE1 [7] = target: T5, MATE1
Procedure: as §8, §9, §10, §11, §12

For `CC(=O)Oc1ccc(C(c2ccc(OC(C)=O)cc2)c2ccccn2)cc1` [Bisacodyl, reference compound], the half-life at 2 μM (in vitro) was 3.6 min, the “% Remaining” value ([1]; 0 min) was 100% and the “Aa/Ai Mean (N = 2)” value ([1]; 0 min) was 1.49. For the same molecule, the “% Remaining” value ([1]; 5 min) was 45.9%, the “Aa/Ai Mean (N = 2)” value ([1]; 5 min) was 0.68 and the “% Remaining” value ([1]; 15 min) was 8.79%. For the same molecule, the “Aa/Ai Mean (N = 2)” value ([1]; 15 min) was 0.13, the “% Remaining” value ([1]; 30 min) was 0.34% and the “Aa/Ai Mean (N = 2)” value ([1]; 30 min) was 0.01. For the same molecule, the “% Remaining” value ([1]; 60 min) was 0.00% and the “Aa/Ai Mean (N = 2)” value ([1]; 60 min) was 0.00.
Work on `COc1ccc2[nH]c([S+]([O-])Cc3ncc(C)c(OC)c3C)nc2c1` (stereo not shown) [Omeprazole] yielded an IC50 (CYP2C19 [2]) of 7.36 µM and an inhibition at 50 µM (CYP2C19 [3]) of 89.9%.
`COCCCC/C(=N\OCCN)c1ccc(C(F)(F)F)cc1` [Fluvoxamine] gave an inhibition at 50 µM (CYP1A2) of 101%.
Work on `O=c1c(O)c(-c2ccc(O)c(O)c2)oc2cc(O)cc(O)c12` [Quercetin] yielded an inhibition at 50 µM (CYP2C8) of 102%.
With `Nc1ccc(S(=O)(=O)Nc2ccnn2-c2ccccc2)cc1` [Sulfaphenazole] the inhibition at 50 µM (CYP2C9) was 98.7%.
Work on `C=C[C@H]1C[N@@]2CC[C@H]1C[C@@H]2[C@@H](O)c1ccnc2ccc(OC)cc12` [Quinidine] yielded an inhibition at 5 µM (CYP2D6) of 96.2%.
`CCc1nc(N)nc(N)c1-c1ccc(Cl)cc1` [Pyrimethamine] showed an inhibition at 5 µM (MATE2-K [4]) of 95%, an inhibition at 5 μM (MATE2-K [4]) of 98% and an inhibition (MATE2-K [5]) of 101%. For the same molecule, the inhibition (MATE2-K [5]; 5 µM) was 101% and 102% and 100%, the inhibition at 5 µM (MATE1 [6]) was 102% and the inhibition at 5 μM (MATE1 [6]) was 101%. It also gave an inhibition (MATE1 [7]) of 100% and an inhibition (MATE1 [7]; 5 µM) of 100%.
